pIC50: −log10 of the molar value.
Tests used:
HL-60 cells = assay: Anti-proliferation 72-hour CTG assay, HL-60; format: cell-based; conditions: Homo sapiens; HL-60, 72-hour CTG assay; read-out: IC50 of the anti-proliferative effect
Description: (§1) A plethora of AML cell lines were treated with serial dilutions of Compound D. IC50 value of the anti-proliferation effect of Compound D (as determined in 72-hour CTG assays) in each cell line is summarized in Table 1.

U-937 cells = assay: Anti-proliferation CTG assay, U-937; format: cell-based, human
Description: as §1
The effect of overexpression of GSPT1 on the anti-proliferative effect of Compound D and Compound E was determined in human histiocytic lymphoma cell line U937 and human leukemia cell line MOLM13. Treatment compounds (e.g., Compound D or Compound E) were titrated from 0.001 μM to 10 μM. Cell proliferation was measured by CellTiter-Glo cell viability assay at 48 hours after treatment. […] However, when exogenous GSPT1 was overproduced via the EF1α promoter, as shown in FIGS. 5A-5D, the anti-proliferative effect of Compound D and Compound E reduced.

OCI-AML3 cells = assay: Apoptosis (caspase 3/7 activation), OCI-AML3; format: cell-based, human; conditions: OCI-AML3, 123 nM
[1] = test system: p-eIF2α, ATF4, ATF3, CHOP/DDIT3, cleaved Caspases; assay: UPR / ATF4 pathway and apoptosis markers in U937 cells (wild type and CRISPR knockouts); format: cell-based, human; conditions: for ATF4 pathway and apoptosis: 4 μM
Text: PERK, one of the four eIF2α, kinases, was knocked out in U937 cells by CRISPR-mediated gene editing using PERK−/− Construct 1 or PERK−/− Construct 2.
GCN2, one of the four eIF2α, kinases, was knocked out in U937 cells by CRISPR-mediated gene editing using GCN2 CRISPR Construct 1 or GCN2 CRISPR Construct 4.

[2] = test system: translational readthrough; assay: AML2 readthrough assay (Fluc/Nluc-G36A reporter), OCI-AML2; format: cell-based, human; conditions: 300 μg/ml G418 or 200 nM Compound D
Description: It is known that amino acid starvation causes GCN2 activation, which phosphorylates eIF2α. Because GSPT1 mediates normal translation termination, it is hypothesized that depletion of GSPT1 by Compound D may cause readthrough of stop codons. Whether the translational readthrough induced by Compound D contributes to the increased levels of p-eIF2α was investigated. OCI-AML2 cells stably expressing the Fluc/Nluc-G36A readthrough reporter were treated with 300 μg/ml G418 or 200 nM Compound D for 2, 4, 6, 8, 10, 12, or 16 hours. The levels of p-eIF2α were measured by immunoblot analysis. AML2 readthrough assay was conducted to measure the readthrough reporter.

For O=C1CCC(N2Cc3cc(CNC(=O)C(F)(F)c4ccc(Cl)cc4)ccc3C2=O)C(=O)N1 (centres unmarked) [Compound D, 2-(4-chlorophenyl)-N-((2-(2,6-dioxopiperidin-3-yl)-1-oxoisoindolin-5-yl)methyl)-2,2-difluoroacetamide], the pIC50 (HL-60 cells) was 7.70, the pIC50 (U-937 cells; Homo sapiens, U-937, 72-hour CTG assay, read-out: IC50 of the anti-proliferative effect) was 7.13 and the anti-proliferative effect (U-937 cells; U937 CRBN -/- cells, 48 hours) was “completely abolished”. The “cell proliferation (CellTiter-Glo)” value (U-937 cells; U937 parental cells, 0.001 μM to 10 μM, 48 hours) was “inhibited cell proliferation”, the “Average Percent Increase in Apoptosis at 123 nM Compound D, Apoptosis (12 hr)” value (OCI-AML3 cells; 12 hr) was 0% and the “Average Percent Increase in Apoptosis at 123 nM Compound D, Apoptosis (24 hr)” value (OCI-AML3 cells; 24 hr) was 1%. The “Average Percent Increase in Apoptosis at 123 nM Compound D, Apoptosis (48 hr)” value (OCI-AML3 cells; 48 hr) was 2%, the “ATF4 pathway and apoptosis” value ([1]; GCN2 knockout U937 cells) was “blocked” and the “ATF4 pathway and apoptosis” value ([1]; wild type U937 cells) was “induced the ATF4 pathway and apoptosis”. For the same compound, the apoptosis ([1]; wild type and PERK knockout U937 cells, 2 μM) was “induced apoptosis” and the translational readthrough [2] was “induced translational readthrough at a comparable level”.

— patent US12474342B2, “Methods for treating cancer and the use of biomarkers as a predictor of clinical sensitivity to therapies” (CELGENE CORPORATION, priority 2016, dated 2025)
